Assay results published in ChEMBL document CHEMBL5034011, “Discovery and Optimization of a 4-Aminopiperidine Scaffold for Inhibition of Hepatitis C Virus Assembly” (J Med Chem, 2021).
In brackets after ≈: the same amount, converted by molar mass.

Legend:
[1] = Cmax in CD-1 mouse liver at 10 mg/kg; type: ADME, organism-based; design: dose 10 mg/kg
[2] = Permeability of the compound by PAMPA method; type: ADME; details: for Papp: read-out: permeability
[3] = Cmax in CD-1 mouse plasma at 10 mg/kg; type: ADME, organism-based; design: dose 10 mg/kg
[4] = AUClast in CD-1 mouse brain at 10 mg/kg; type: ADME, organism-based; design: time 0 - last, dose 10 mg/kg
[5] = AUClast in CD-1 mouse plasma at 10 mg/kg; type: ADME, organism-based; design: time 0 - last, dose 10 mg/kg
[6] = Tmax in CD-1 mouse liver at 10 mg/kg; type: ADME, organism-based
[7] = Tmax in CD-1 mouse plasma at 10 mg/kg; type: ADME, organism-based
[8] = Tmax in CD-1 mouse brain at 10 mg/kg; type: ADME, organism-based
[9] = Kinetic aqueous solubility of compound by pION uSOL method at pH 7.4; details: buffer
[10] = Ratio of AUClast in liver to plasma in CD-1 mouse at 10 mg/kg; type: ADME, organism-based
[11] = AUClast in CD-1 mouse liver at 10 mg/kg; type: ADME, organism-based; design: time 0 - last, dose 10 mg/kg
[12] = Ratio of AUClast in brain to plasma in CD-1 mouse at 10 mg/kg; type: ADME, organism-based
[13] = Tmax in CD-1 mouse plasma at 1 mg/kg; type: ADME, organism-based
[14] = AUClast in CD-1 mouse plasma at 1 mg/kg; type: ADME, organism-based; design: time 0 - last, dose 1 mg/kg
[15] = AUClast in CD-1 mouse liver at 1 mg/kg; type: ADME, organism-based; design: time 0 - last, dose 1 mg/kg
[16] = Ratio of AUClast in brain to plasma in CD-1 mouse at 1 mg/kg; type: ADME, organism-based
[17] = AUClast in CD-1 mouse brain at 1 mg/kg; type: ADME, organism-based; design: time 0 - last, dose 1 mg/kg
[18] = Tmax in CD-1 mouse liver at 1 mg/kg; type: ADME, organism-based
[19] = Cmax in CD-1 mouse liver at 1 mg/kg; type: ADME, organism-based; design: dose 1 mg/kg
[20] = Cmax in CD-1 mouse brain at 1 mg/kg; type: ADME, organism-based; design: dose 1 mg/kg
[21] = Ratio of AUClast in liver to plasma in CD-1 mouse at 1 mg/kg; type: ADME, organism-based
[22] = Tmax in CD-1 mouse brain at 1 mg/kg; type: ADME, organism-based

Papp [2] | solubility kinetic [9] | SMILES | other results
32 ×10⁻⁶ cm/s | 3.32 µg/mL (≈ 6.48 µM) | Clc1cc(CN(C2CCNCC2)C2CC(c3ccc(Br)cc3)C2)ccc1Br (stereo not drawn) | Cmax [1]: 57400 ng/mL; Cmax [3]: 759 ng/mL; AUC(0-t) [4]: 56800 ng·h/mL; AUC(0-t) [5]: 10500 ng·h/mL; Tmax [6]: 1 h; Tmax [7]: 0.5 h; Tmax [8]: 24 h; Kp [10]: 76; AUC(0-t) [11]: 793000 ng·h/mL; Kp [12]: 54
– | 13.3 µg/mL (≈ 29.7 µM) | Cc1ccc(C2CC(N(Cc3ccc(Br)c(Cl)c3)C3CCCNC3)C2)cc1 (stereo not drawn) | –
– | 9.71 µg/mL (≈ 21.7 µM) | Cc1ccc([C@H]2C[C@@H](N(Cc3ccc(Br)c(Cl)c3)C3CCNCC3)C2)cc1 | –
– | < 1 µg/mL | CC(=O)N1CCC(N(Cc2ccc(Br)c(Cl)c2)C2CC(c3ccc(C)cc3)C2)CC1 (stereo not drawn) | permeability [2]: 1909 10^-6 cm/s
14 ×10⁻⁶ cm/s | 3.94 µg/mL (≈ 7.68 µM) | Clc1cc(CN(C2CCNCC2)C2CC(c3cccc(Br)c3)C2)ccc1Br (stereo not drawn) | –
818 ×10⁻⁶ cm/s | – | Cc1ccc(C2CC(N(Cc3ccc(Br)c(Cl)c3)C3CCC(N)CC3)C2)cc1 (stereo not drawn) | –
123 ×10⁻⁶ cm/s | 7.26 µg/mL (≈ 15.8 µM) | Cc1ccc(C2CC(N(Cc3ccc(Br)c(Cl)c3)C3CC4CNC3C4)C2)cc1 (stereo not drawn) | –
398 ×10⁻⁶ cm/s | – | Fc1ccc(C2CC(N(Cc3ccc(Br)c(Cl)c3)C3CCNCC3)C2)cc1 (stereo not drawn) | –
< 6.4 ×10⁻⁶ cm/s | < 1 µg/mL | Cc1ccc(C2CC(N(Cc3ccc(Br)c(Cl)c3)C3CCOCC3)C2)cc1 (stereo not drawn) | –
< 23.1 ×10⁻⁶ cm/s | 15.4 µg/mL (≈ 31.4 µM) | Cc1ccc(C2CC(N(Cc3ccc(Br)c(Cl)c3)C3CCN(C(C)C)CC3)C2)cc1 (stereo not drawn) | –
806 ×10⁻⁶ cm/s | 18.2 µg/mL (≈ 40.6 µM) | Cc1ccc(C2CC(N(Cc3ccc(Br)c(Cl)c3)C3CCNCC3)C2)cc1 (stereo not drawn) | –
274 ×10⁻⁶ cm/s | 22.9 µg/mL (≈ 49.7 µM) | Cc1ccc(C2CC(N(Cc3ccc(Br)c(Cl)c3)C3CCN(C)CC3)C2)cc1 (stereo not drawn) | –
– | < 1 µg/mL | Cc1ccc(C2CC(N(Cc3ccc(Br)c(Cl)c3)C3C4CCC3CNC4)C2)cc1 (stereo not drawn) | –
– | 23.2 µg/mL (≈ 53.5 µM) | Cc1ccc(C2CC(N(Cc3ccc(Br)c(Cl)c3)C3CCNC3)C2)cc1 (stereo not drawn) | –
– | 1.09 µg/mL (≈ 2.43 µM) | Cc1ccc([C@H]2C[C@H](N(Cc3ccc(Br)c(Cl)c3)C3CCNCC3)C2)cc1 | Tmax [13]: 0.167 h; AUC(0-t) [14]: 275 ng·h/mL; AUC(0-t) [15]: 9570 ng·h/mL; Kp [16]: 11; AUC(0-t) [17]: 3000 ng·h/mL; Tmax [18]: 2 h; Cmax [19]: 1850 ng/mL; Cmax [20]: 153 ng/mL; Kp [21]: 35; Tmax [22]: 1.5 h
– | 4 µg/mL (≈ 8.54 µM) | Clc1cccc(C2CC(N(Cc3ccc(Br)c(Cl)c3)C3CCNCC3)C2)c1 (stereo not drawn) | –
265 ×10⁻⁶ cm/s | – | Cc1cccc(C2CC(N(Cc3ccc(Br)c(Cl)c3)C3CCNCC3)C2)c1 (stereo not drawn) | –
666 ×10⁻⁶ cm/s | 25.6 µg/mL (≈ 55.5 µM) | Cc1ccc(C2CC(N(Cc3ccc(Br)c(Cl)c3)C3CCCNCC3)C2)cc1 (stereo not drawn) | –

SMILES | Papp [2] | solubility kinetic [9] | other results
Cc1ccc(C2CC(N(Cc3ccc(Br)c(Cl)c3)C3CC4CCC(C3)N4)C2)cc1 (stereo not drawn) | – | 11.1 µg/mL (≈ 23.4 µM) | –
